# From patent US20080199899A1, “Method For Screening Modulators of Mitochondrial Functioning and New Modulators Obtained” (priority 2002, published 2008)
# Positions of bridges follow the written chain, without caps; N, C: chain ends. No end group written: not given here.
# Tested on: Human umbilical vein endothelial cells (HUVEC)
# Test: Apoptosis of HUVEC by FACS analysis after 7AAD staining
# Type: cell-based
# Details: 5 to 30 μM, 24 to 96 h; FIG. 13
# Description: Human umbilical vein endothelial cells were treated with Seq.
# HUVEC cells were incubated for 24 to 96 h with 5 or 30 μM of peptide Seq. ID n 5, control peptide, or left untreated. Apoptosis was characterized by FACS analysis after 7AAD staining. A. Dose-response versus control peptide. B. Increasing incubation times with or without 10 μM peptides and staining with 7AAD and detection by FACS analysis.
substance,measurement,value
GG*CRGDMFG*CGGLLFIHFRIGSRHSRIG (GGCRGDMFGCGGLLFIHFRIGSRHSRIG; disulfide 3-10) [SEQ ID N^o 5],apoptosis of HUVEC (in words),apoptosis induction
